The text below walks through data of patent publication US20190167569A1, “ENHANCED HERBAL EXTRACTION AND TRANSDERMAL DELIVERY” (priority 2016, published 2019).

Like-named read-outs stand apart in the source and are kept apart here.

Data set [1] in a line: Diffusion of carvacrol in thyme essential oil through Franz diffusion cells that mimic human skin (UV-VIS, 272 nm). The data set is classed as in vitro ADME. As to the method:
The diffusion rates of carvacrol in thyme (Tymus vulgaris) essential oil through diffusion cells that mimic human skin were calculated and analyzed using UV-VIS spectrophotometry to measure carvacrol content. Franz diffusion cells from Permegeaer, USA, with 47 mm, 200 nm inert polycarbonate membrane filters, were used with 5 ml extract solution samples. […] The amount of carvacrol that passed through the filter was determined by absorbance graphics on a UV spectrophotometer (Agilent 8453). A standard calibration curve was determined for carvacrol and the absorbances were measured at 272 nm to determine the % concentrations released.
The diffusion rates of carvacrol in thyme (Tymus vulgaris) essential oil (0.05 ml of thyme essential oil) dispersed in 1 ml of soapwort extract solution through diffusion cells that mimic human skin were calculated and analyzed using UV-VIS spectrophotometry to measure carvacrol content. Franz diffusion cells from Permegear, USA, with 47 mm, 200 nm inert polycarbonate membrane filters, were used with 5 ml extract solution samples. The speed of diffusion of different thyme extracts were calculated at 1, 3, 5, 7, 10, 20, 40 minutes (and up to 1 day of duration) at a rotational speed of 50 rpm to mimic a dermal application. The amount of carvacrol that passed through the filter was determined by absorbance graphics on a UV spectrophotometer (Agilent 8453). A standard calibration curve was determined for carvacrol and the absorbances were measured at 272 nm to determine the % concentrations released.
The diffusion rates of carvacrol in thyme (Tymus vulgaris) essential oil (0.05 ml of thyme essential oil dispersed in 1 ml of licorice extract solution) through diffusion cells that mimic human skin were calculated and analyzed using UV-VIS spectrophotometry to measure carvacrol content. Franz diffusion cells from Permegeaer, USA, with 47 mm, 200 nm inert polycarbonate membrane filters, were used with 5 ml extract solution samples. The speed of diffusion of different thyme extracts were calculated at 1, 2, 3, 4, 7, 10, 20, 30, 40 minutes (and up to 1 day of duration) at a rotational speed of 50 rpm to mimic a dermal application. The amount of carvacrol that passed through the filter was determined by absorbance graphics on a UV spectrophotometer (Agilent 8453). A standard calibration curve was determined for carvacrol and the absorbances were measured at 272 nm to determine the % concentrations released.

Data set [2] is classed as in vitro ADME. As to the method:
(§1) The diffusion rates of different rosemary extract solutions through diffusion cells that mimic human skin were calculated and analyzed using UV-VIS spectrophotometry to measure rosmarinic acid content. Franz diffusion cells from Permegear, USA, with 47 mm, 200 nm inert polycarbonate membrane filters, were used with 5 ml extract solution samples. The speed of diffusion of different rosemary extracts were calculated at 1, 2, 3, 4, 10, 20, 30, 60, 120, 360 minutes (and up to 1 day of duration) at a rotational speed of 50 rpm to mimic a dermal application. The amount of rosmarinic acid that passed through the filter was determined by absorbance graphics on a UV spectrophotometer (Agilent 8453). A standard calibration curve was determined for rosmarinic acid and the absorbances were measured at 323 nm to determine the % concentrations released.
For a reference or baseline sample, a decoction of rosemary in water alone was prepared at a 1:5 ratio.
A soapwort decoction (an extraction medium with a saponin content) was prepared in water at a 1:5 ratio. A consequent decoction of rosemary (i.e., a rosemary extract solution) was prepared in the mentioned soapwort decoction at a 1:5 ratio. […] Thus, the transdermal delivery of rosmarinic acid using the method of the present invention is much faster than classical water decoctions predominantly used in modern dermal or cosmetic formulations.
as §1, with “5, 40” for “4, 10, 20, 30, 60, 120, 360”
A soapwort decoction (an extraction medium with a saponin content) was prepared in water at a 1:5 ratio. A decoction of rosemary (i.e., a rosemary extract solution) was prepared in 5×distilled water. The mentioned soapwort decoction and the water decoction of the rosemary leaves were then mixed at a 1:1 ratio. The following diffusion values were measured for this mixture: 14% at minute 1, 49.4% at minute 3, and 100% at minute 5.
The diffusion rates of rosemarinic acid in rosemary essential oil through diffusion cells that mimic human skin were calculated and analyzed using UV-VIS spectrophotometry to measure rosmarinic acid content. Franz diffusion cells from Permegear, USA, with 47 mm, 200 nm inert polycarbonate membrane filters, were used with 5 ml extract solution samples. The speed of diffusion of different rosemary extracts were calculated at 1, 2, 3, 4, 7, 10, 20, 40 minutes (and up to 1 day of duration) at a rotational speed of 50 rpm to mimic a dermal application. The amount of rosmarinic acid that passed through the filter was determined by absorbance graphics on a UV spectrophotometer (Agilent 8453). A standard calibration curve was determined for rosmarinic acid and the absorbances were measured at 323 nm to determine the % concentrations released.

The format of data set [3] is physicochemical. As to the method:
100% of the carvacrol present in soapwort extract solution was released at the end of 40 minutes whereas about 90% of carvacrol present in licorice extract solution at the end of 40 minutes. When the solubilities were compared, it was observed that 0.5% of thyme oil was clearly dissolved in soapwort water extract and maximum 2% of thyme oil could be homogenously dispersed in soapwort. The maximum amount of thyme oil dissolved in licorice was 0.5%. Absorbance results clearly indicate that soapwort water extract has higher potential to dissolve and diffuse carvacrol of Thyme essential oil than does licorice.

Take `Cc1ccc(C(C)C)cc1O` [carvacrol]: the diffusion in data set [1] (0.05 ml thyme essential oil in 1 ml licorice extract solution, after 24 hours) is on record as 100%. Besides, the diffusion value in data set [1] (0.05 ml thyme essential oil in 1 ml licorice extract solution, minute 1) amounted to 0%; in data set [1] (0.05 ml thyme essential oil in 1 ml licorice extract solution, minute 2), 3.98%; in data set [1] (0.05 ml thyme essential oil in 1 ml licorice extract solution, minute 3) it was 14.41%; in data set [1] (0.05 ml thyme essential oil in 1 ml licorice extract solution, minute 4) it was 32.98%; in data set [1] (0.05 ml thyme essential oil in 1 ml licorice extract solution, minute 7), 42.59%; in data set [1] (0.05 ml thyme essential oil in 1 ml licorice extract solution, minute 10), 56.35%. Moreover, the diffusion value in data set [1] (0.05 ml thyme essential oil in 1 ml licorice extract solution, minute 20) stood at 67.61%; in data set [1] (0.05 ml thyme essential oil in 1 ml licorice extract solution, minute 30), 77.73%; in data set [1] (0.05 ml thyme essential oil in 1 ml soapwort extract solution, minute 1) it was 8.20%; in data set [1] (0.05 ml thyme essential oil in 1 ml soapwort extract solution, minute 3), 26.43%; in data set [1] (0.05 ml thyme essential oil in 1 ml soapwort extract solution, minute 5) it was 44.75%; in data set [1] (0.05 ml thyme essential oil in 1 ml soapwort extract solution, minute 7) it was 66.29%. Also, the diffusion value in data set [1] (0.05 ml thyme essential oil in 1 ml soapwort extract solution, minute 10) was determined as 77.15%; in data set [1] (0.05 ml thyme essential oil in 1 ml soapwort extract solution, minute 20) it was 91.39%; in data set [1] (0.05 ml thyme essential oil in 1 ml soapwort extract solution, minute 40), 100%. Further, in data set [1] (thyme essential oil alone), the “transdermal delivery (in words)” value is given as “negligible”. Besides, the carvacrol released in data set [1] (thyme essential oil alone, end of 40 minutes) turned out to be 0%. Besides, the absorbance values entry in data set [1] (thyme essential oil alone, end of 48 hours) was “minimal”.
With `O=C(/C=C/c1ccc(O)c(O)c1)O[C@H](Cc1ccc(O)c(O)c1)C(=O)O` [Rosmarinic Acid, rosmarinic acid], in data set [2], the absorbance values result was “minimal”, the “fraction of the control sample diffusion time” value is given as 1/30, the “penetration rate relative to control sample (only water decoction of rosemary)” value is “approximately 30 ×” and the “transdermal delivery (in words)” value is reported as “negligible”. Moreover, the rosemarinic acid released in data set [2] (40 min) is recorded as 0%. The “rosmarinic acid content passed through the membrane” value in data set [2] (150 min) worked out at 100%.
With thyme oil, the “maximum amount homogenously dispersed in soapwort” value in data set [3] amounted to 2%.
